{"source": "paper PMC6397219", "about": "“Rapid one-step ^18F-radiolabeling of biomolecules in aqueous media by organophosphine fluoride acceptors” (Nature Communications, 2019)", "key": {"[1]": {"tested_on": "U87MG gliomablastoma", "format": "in vivo, mouse", "conditions": "for Tumor-SUVbw: unblocked, mean n=3", "experimental": "(§1) 37 °C in a humidified atmosphere containing 5% CO 2 in Dulbecco’s Modified Eagle Medium (DMEM, high glucose) supplemented with 10% fetal bovine serum. Each male BALB/ c nude mouse wa s injected subcutane ously in the right foreleg with about 2 × 10^6 U87MG cells. At 4-5 week after inoculation, when the tumors reached about 0.5 cm in diameter, the mice were used for PET/CT imaging studies.\n(§2) MicroPET/CT imaging with 18F-DBP OF-c(RGDyk)\nGlioblastoma tumor mice were employed in microPET/CT imaging (n = 3) with 18F-DBPOF-c(RGDyk). Anesthetization was con ducted with 2.5% isoflurane during preparation and 1.5% during scans. 10 min dynamic microPET-CT scans were acquired by an Inveon microPET/CT (Siemens, Germany) 20 min post i.v. injection of 18F-DBPOF-c(RGDyk) (100 µL, 100 µCi). Reconstruction of PET images was performed with 3D OPMAP algorithm. […]\n39~2. 51 times higher than blocked mice . The tumor was clearly observable whereas blocked mice had much less tumor uptake as indicated in Supplementary Figure 13. […]"}, "[2]": {"assay": "Log D of 18F-DBPOF-c(RGDyk), 1-octanol/PBS", "format": "physicochemical", "conditions": "shake-flask, pre-saturated 1-octanol/PBS pH 7.4; 2.0 mL each; four tubes; shaken 10 min, centrifuged 5 min; γ counter, decay-corrected", "experimental": "= 7.4) system to estimate the hydrophobicity changes between c(RGDyk) and 18F-DBP OF-c(RGDyk) that may influence biological function of c(RGDyk).\n1-Octanol (2.0 mL) and phosphate buffer (2.0 mL) were pipetted into four 12 mL test tubes containing […] of radiotracer. The test tubes were stoppered, mechanic ally shaken for 10 min, and centrifuged (5 min). From each tube, approximately 0.5 mL of buffer was transferred into a pre -weighed test tube for counting. The remaining buffer was discarded and approximately 0.5 mL of octanol phase was also transferred int o a separate pre-weighed test tube. The amount of radioactivity in each tube was measured by a γ counter and corrected for decay. Accurate volumes of each counted phase were determined by weight differences and known densities. The partition coefficient was calculated using Supplementary Equation 1:\nLog D = Counts/m L in buffer = -0.59 ± 0.09 1 […]\nPhotosensitizers were added at concentrations 0, 0.01, 0.05, 0.1, 0.5, 1 and 5 mM. The cell cytotoxic effect on the U87MG cells were determined using the CCK8 assay.\nAfter 12 h and 24 h of incubation after the treatment we added 10 µL of CCK8 and incubated the cells for another 1 h at 37 °C and in 5% CO2. The measurement of absorbance was carried out on a 96-well microplate reader Synergy HT at 450 nm. […]"}, "[3]": {"tested_on": "U87MG gliomablastoma", "format": "in vivo, mouse", "conditions": "60 min dynamic images; n = 3", "experimental": "as §1, §2\nGlioblastoma tumor mice were employed in microPET/CT imaging (n = 3) with 18F-DBPOF-c(RGDyk). Anesthetization was con ducted with 2.5% isoflurane during preparation and 1.5% during scans. 10 min dynamic microPET-CT scans were acquired by an Inveon microPET/CT (Siemens, Germany) 20 min post i.v. injection of 18F-DBPOF-c(RGDyk) (100 µL, 100 µCi). Reconstruction of PET images was performed with 3D OPMAP algorithm.\nIn order to study the specific tumor uptake, mice were pre-blocked by injection of 10 µmol DBPOF-c(RGDyk) 30 min prior to injection of 18F-DBPOF-c(RGDyk) as the control group. Then 60 min dynamic images were acquired to provide a control group […]\nwhile the average tumor uptake SUV in the blocked mice was only 0.32~1.12. The tumor uptake of unblocked mice is 1. 39~2. 51 times higher than blocked mice . The tumor was clearly observable whereas blocked mice had much less tumor uptake as indicated in Supplementary Figure 13. […]"}}, "note": "Where two headings read alike, the source gives them in different places.", "data": [{"substance": "^18F-DBPOF-c(RGDyk) (head to tail) [18F-labeled peptide ligand, targets the integrin αvβ3 receptor of the U87MG cell]", "values": [{"measurement": "Tumor-SUVbw", "setting": "[1]; 21 min", "value": 0.5941}, {"measurement": "Tumor-SUVbw", "setting": "[1]; 22 min", "value": 0.4485}, {"measurement": "Tumor-SUVbw", "setting": "[1]; 23 min", "value": 0.7452}, {"measurement": "Tumor-SUVbw", "setting": "[1]; 24 min", "value": 0.761}, {"measurement": "Tumor-SUVbw", "setting": "[1]; 25 min", "value": 0.4755}, {"measurement": "Tumor-SUVbw", "setting": "[1]; 26 min", "value": 0.5271}, {"measurement": "Tumor-SUVbw", "setting": "[1]; 27 min", "value": 0.4212}, {"measurement": "Tumor-SUVbw", "setting": "[1]; 28 min", "value": 0.5137}, {"measurement": "Tumor-SUVbw", "setting": "[1]; 29 min", "value": 0.5036}, {"measurement": "Tumor-SUVbw", "setting": "[1]; 30 min", "value": 0.6269}, {"measurement": "uptake, standardized uptake value (SUV) in U87MG gliomablastoma", "setting": "[1]; microPET/CT, 100 µCi i.v., dynamic scan from 20 min post injection", "value": 0.76}, {"measurement": "target to non-target ratio", "setting": "[1]; microPET/CT, U87MG gliomablastoma", "value": 2.4}, {"measurement": "Log D", "setting": "[2]", "value": "-0.59 ± 0.09"}, {"measurement": "average tumor uptake SUV in the blocked mice", "setting": "[3]", "value": "0.32~1.12"}]}]}
